Assays:
Assay in all cases: relative viability (nuclei count vs DMSO), 5 days (fraction); higher = more cells survive
Dasatinib + AZD7762 = compound: Cc1nc(Nc2ncc(C(=O)Nc3c(C)cccc3Cl)s2)cc(N2CCN(CCO)CC2)n1 [Dasatinib] + NC(=O)Nc1cc(-c2cccc(F)c2)sc1C(=O)N[C@H]1CCCNC1 [AZD7762] (partner 0.2 µM)
Method in brief: (§1)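 Dosing by pin tool came one day after lung cancer cell lines were seeded in 1536-well plates, using either one drug or a fixed anchor-drug dose plus five library-drug doses (not always all listed) in √10 steps. After 5 days, nuclei were counted on 4× images. Relative viability is treated-well nuclei count divided by vehicle-well nuclei count, and values are medians of duplicate plates.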

ALW-II-49-7 + Olaparib = compound: Cc1ccc(C(=O)Nc2cccc(C(F)(F)F)c2)cc1Nc1cncc(C(N)=O)c1 [ALW-II-49-7] + O=C(c1cc(Cc2n[nH]c(=O)c3ccccc23)ccc1F)N1CCN(C(=O)C2CC2)CC1 [Olaparib] (partner 8 µM)
Method in brief: as §1

XMD13-2 + Luminespib = compound: C1CC1C(=O)NC2=NNC3=C2C=CC(=C3)C4=CC(=CC=C4)C(=O)NC5CC5 [XMD13-2] + CCNC(=O)c1noc(-c2cc(C(C)C)c(O)cc2O)c1-c1ccc(CN2CCOCC2)cc1 [Luminespib] (partner 0.01 µM)
Method in brief: as §1

XMD13-2 + Pictilisib = compound: C1CC1C(=O)NC2=NNC3=C2C=CC(=C3)C4=CC(=CC=C4)C(=O)NC5CC5 [XMD13-2] + CS(=O)(=O)N1CCN(Cc2cc3nc(-c4cccc5[nH]ncc45)nc(N4CCOCC4)c3s2)CC1 [Pictilisib] (partner 1 µM)
Method in brief: as §1

Cell Line | relative viability (Dasatinib + AZD7762; first compound 0.005 µM) | relative viability (Dasatinib + AZD7762; first compound 0.01581 µM) | relative viability (Dasatinib + AZD7762; first compound 0.05 µM) | relative viability (Dasatinib + AZD7762; first compound 0.1581 µM) | relative viability (Dasatinib + AZD7762; first compound 0.5 µM) | relative viability (ALW-II-49-7 + Olaparib; first compound 0.08 µM) | relative viability (ALW-II-49-7 + Olaparib; first compound 0.253 µM) | relative viability (ALW-II-49-7 + Olaparib; first compound 0.8 µM) | relative viability (ALW-II-49-7 + Olaparib; first compound 2.53 µM) | relative viability (ALW-II-49-7 + Olaparib; first compound 8 µM) | relative viability (XMD13-2 + Luminespib; first compound 0.05 µM) | relative viability (XMD13-2 + Luminespib; first compound 0.1581 µM) | relative viability (XMD13-2 + Luminespib; first compound 0.5 µM) | relative viability (XMD13-2 + Luminespib; first compound 1.581 µM) | relative viability (XMD13-2 + Luminespib; first compound 5 µM) | relative viability (XMD13-2 + Pictilisib; first compound 0.05 µM) | relative viability (XMD13-2 + Pictilisib; first compound 0.1581 µM) | relative viability (XMD13-2 + Pictilisib; first compound 0.5 µM) | relative viability (XMD13-2 + Pictilisib; first compound 1.581 µM) | relative viability (XMD13-2 + Pictilisib; first compound 5 µM)
NCI-H3122 | 0.991 | 0.982 | 0.951 | 0.876 | 0.643 | 0.636 | 0.657 | 0.642 | 0.705 | 0.537 | 0.102 | 0.0949 | 0.106 | 0.105 | 0.0867 | 0.655 | 0.598 | 0.585 | 0.662 | 0.505
HCC-44 | 1.07 | 0.992 | 1.19 | 1.33 | 1.1 | 0.928 | 1.04 | 0.995 | 0.957 | 0.935 | 1.28 | 1.12 | 1.17 | 1.06 | 1.03 | 0.665 | 0.597 | 0.609 | 0.533 | 0.571
PC-3 [JPC-3] | 0.98 | 1.04 | 0.755 | 0.528 | 0.427 | 0.693 | 1.2 | 1.24 | 1.05 | 1 | 0.681 | 0.661 | 0.64 | 0.776 | 0.782 | 0.746 | 0.733 | 0.777 | 0.747 | 0.724
NCI-H1993 | 0.777 | 0.639 | 0.755 | 0.444 | 0.485 | 1.01 | 1.02 | 0.928 | 1.06 | 1.32 | 1 | 0.663 | 0.833 | 0.801 | 1.09 | 0.846 | 0.783 | 0.781 | 0.937 | 0.845
LOU-NH91 | 0.747 | 0.638 | 0.623 | 0.469 | 0.384 | 0.846 | 0.946 | 0.923 | – | 0.805 | 0.355 | 0.318 | 0.374 | 0.347 | 0.318 | 0.565 | 0.506 | 0.524 | 0.494 | 0.511
LCLC-103H | 0.695 | 0.666 | 0.628 | 0.523 | 0.331 | 0.724 | 0.79 | 0.771 | 0.714 | 0.762 | 0.958 | 0.943 | 0.998 | 1.07 | 0.739 | 0.684 | 0.714 | 0.585 | 0.657 | 0.622
NCI-H1915 | 0.693 | 0.616 | 0.509 | 0.21 | 0.212 | 0.243 | 0.275 | 0.224 | 0.211 | 0.398 | 0.867 | 0.859 | 0.833 | 0.717 | 0.635 | 0.981 | 0.884 | 1.07 | 0.9 | 0.919
NCI-H1734 | 0.524 | 0.482 | 0.482 | 0.406 | 0.386 | 0.57 | 0.628 | 0.596 | 0.46 | 0.558 | 0.259 | 0.179 | 0.179 | 0.192 | 0.177 | 0.558 | 0.45 | 0.444 | 0.423 | 0.389

Source: the supplement of paper PMC10307832
